Here are results for 20 compounds from patent US20250084063A1 (Incyte Corporation, priority 2023, published 2025).

The target of test [1] is T1, MRGPRX2 (Homo sapiens, UniProt Q96LB1).
T1 sequence (Q96LB1 1-330): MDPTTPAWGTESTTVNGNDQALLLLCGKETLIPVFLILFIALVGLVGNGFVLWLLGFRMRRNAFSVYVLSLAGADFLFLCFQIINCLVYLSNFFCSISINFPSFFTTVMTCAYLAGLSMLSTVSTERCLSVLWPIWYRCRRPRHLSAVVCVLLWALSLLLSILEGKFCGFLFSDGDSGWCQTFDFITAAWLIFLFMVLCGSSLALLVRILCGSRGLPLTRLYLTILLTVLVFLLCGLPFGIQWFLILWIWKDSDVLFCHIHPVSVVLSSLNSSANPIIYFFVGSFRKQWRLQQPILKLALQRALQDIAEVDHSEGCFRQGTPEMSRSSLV
In words: MRGPRX2 FLIPR calcium mobilization assay. It counts as cell-based. Also noted: host or cells: CHO-K1. Conditions: CHO-K1 cells stably expressing human MRGPRX2; Ca2+ release, agonist Cortistatin-14 at EC80. The protocol:
Example A. MRGPRX2 FLIPR Calcium Mobilization Assay
Chinese hamster ovary (CHO-K1) cells stably expressing human MRGPRX2 were purchased from Genescript (Piscataway, NJ). The cells were maintained in culture medium (Ham's F-12K) containing 10% (v/v) FBS, 200 μg/mL Zeocin, 100 units/mL penicillin G and 100 μg/mL streptomycin (Life Technologies, Carlsbad, CA). For the assay, the cells were harvested and resuspended with culture medium without Zeocin before plating at 8000 cells per well in 20 μL in 384-well black clear bottom cell culture plates (VWR, Radnor, PA). After 24 h culture at 37° C. and 5% CO2, the cells were loaded with 20 μL/well of calcium dye (FLIPR Calcium 6 Assay Kit, Molecular Devices, San Jose, CA) diluted in loading buffer (1×Hank's Balanced Salt Solution (HBSS), 5 mM probenecid, 20 mM 4-(2-hydroxyethyl)-1-piperazineethanesulfonic acid (HEPES), pH 7.4, VWR, Radnor, PA) followed with 45 min incubation at 37° C. and 40 min at room temperature in the dark. Cells were then treated with the addition of 10 uL/well test compounds with a range of increasing concentrations diluted in the assay buffer (1×HBSS, 20 mM HEPES, pH 7.4, VWR, Radnor, PA) with FLIPR Penta (Molecular Devices. San Jose, CA) and incubated for 30 min. at room temperature. Ca^2+ release was measured with FLIPR Penta with 10 seconds basal fluorescence measurement, then 12.5 μL of 5× agonist Cortistatin-14 (Tocris, Minneapolis, MN) at final concentration corresponding to the EC80 were added followed with continued fluorescence signal monitoring for an additional 110 seconds. The base line adjusted (median of first 10s base line) max value of the Relative Fluorescence Unit (RFU) was plotted against compound concentrations. Wells with no compound were served as the positive controls, and wells with high concentration of reference antagonist were used as negative controls. IC50 curves were globally fitted with 3- or 4-parameter Hill equation in a Genedata Screener (Genedata Basel, Switzerland).

The target of test [2] is T1, MRGPRX2. Put plainly: MRGPRX2 IP1 HTRF assay. It is filed as cell-based. Further details: host or cells: CHO-K1. Conditions: CHO-K1 cells stably expressing human MRGPRX2; IP1 accumulation, agonist Cortistatin 14 1 μM. An excerpt: Example B: MRGPRX2 IP1 HTRF Assay
This assay measures compound inhibition of myo-Inositol 1 phosphate (IP1) accumulation in CHO-K1 cells. Chinese hamster ovary (CHO-K1) cells stably expressing human MRGPRX2 were purchased from GenScript (Piscataway, NJ).
For the HTRF IP1 determination, an IP-One GqKit (Perkin Elmer Cisbio, Waltham, MA), which includes all reagents and buffers in this protocol, was used. The cells were maintained in culture medium (Ham's F-12K) containing 10% (v/v) FBS, and 200 μg/mL Zeocin. For the assay, the cells were harvested and resuspended in culture medium with 2% FBS and without Zeocin, then were passed through a 40 μm filter. Cells were added at 20000 cells in a 5 μL/well to a 384-well white small volume cell culture plate (Greiner VWR, Radnor, PA) which contained 50 nL/well of test compound serially diluted at a selected concentration range in DMSO. 5 μL/well of prepared 2× Stimulation Buffer2 was then added to plates and was incubated at 37° C. with 5% CO2 for 1 h. 5 μL/well of agonist Cortistatin 14 (Bio-TechneR&D Systems, Minneapolis, MN) in 1× Stimulation Buffer 2, for a 1 μM final concentration, was then added to plates and incubated at 37° C. with 5% CO2 for 1 h. 6 μL/well of 1:20 diluted Detection Reagent Mix (d2 and Cryptate) was added to the plates and incubated for 1 h in the dark. Plates were read on the PHERAstar microplate reader (BMG Labtech Cary, NC) to determine the HTRF ratio of the acceptor and donor emission signals. The IP1 concentrations were calculated from a standard curve following the IP-One GQ kit instructions. Wells with DMSO only and wells with high concentration of reference antagonist were used as controls for normalization. Compound IC50 curves were globally fitted with 3- or 4-parameter Hill equation in a Genedata Screener (Genedata Basel, Switzerland).
On the technique in general: In TR-FRET formats the signal depends on donor and acceptor labels being close together.

As a reminder, the pIC50 is −log10 of the IC50, conventionally taken in molar units.

SMILES strings stand for the structures. pIC50: −log10 of the molar value.

In the case of `NC(=O)N1CCC(CNc2cc(C(F)(F)F)nc3ccc(Cl)cc23)(c2ccccc2)CC1` [Example 13, 4-(((6-Chloro-2-(trifluoromethyl)quinolin-4-yl)amino)methyl)-4-phenylpiperidine-1-carboxamide], the pIC50 in test [1] and in test [2] was 7.00 to 10.00 in each case.
For `CN1CCC(CNc2cc(C(F)(F)F)nc3ccc(Cl)cc23)(c2ccccc2)CC1` [Example 15, 6-Chloro-N-((1-methyl-4-phenylpiperidin-4-yl)methyl)-2-(trifluoromethyl)quinolin-4-amine], the pIC50 in test [1] and in test [2] was 7.00 to 10.00 in each case.
`NS(=O)(=O)N1CC(CNc2cc(C(F)(F)F)nc3ccc(Cl)cc23)(c2ccc(Cl)cc2)C1` [Example 33, 3-(((6-Chloro-2-(trifluoromethyl)quinolin-4-yl)amino)methyl)-3-(4-chlorophenyl)azetidine-1-sulfonamide]: the pIC50 in test [1] and in test [2] was 7.00 to 10.00 throughout.
On to `NS(=O)(=O)N1CC(CNc2cc(C(F)(F)F)nc3ccc(Cl)cc23)(c2ccc(F)c(F)c2)C1` [Example 34, 3-(((6-Chloro-2-(trifluoromethyl)quinolin-4-yl)amino)methyl)-3-(3,4-difluorophenyl)azetidine-1-sulfonamide], for which the negative logarithm of the IC50 (pIC50) in test [1] and in test [2] was 7.00 to 10.00 throughout.
As to `NS(=O)(=O)N1CC(CNc2cc(C(F)(F)F)nc3ccc(Cl)cc23)(c2ccnc(Cl)c2)C1` [Example 35, 3-(((6-Chloro-2-(trifluoromethyl)quinolin-4-yl)amino)methyl)-3-(2-chloropyridin-4-yl)azetidine-1-sulfonamide], the pIC50 in test [1] and in test [2] was 7.00 to 10.00 in each case.
Turning to `NS(=O)(=O)N1CC(CNc2cc(C(F)(F)F)nc3ccc(Cl)cc23)(n2cc(Cl)cn2)C1` [Example 36, 3-(4-Chloro-1H-pyrazol-1-yl)-3-(((6-chloro-2-(trifluoromethyl)quinolin-4-yl)amino)methyl)azetidine-1-sulfonamide], the pIC50 in test [1] and in test [2] was 7.00 to 10.00 throughout.
Take `NC(=O)N1CC(CNc2cc(C(F)(F)F)nc3ccc(Cl)cc23)(c2ccc(F)cc2)C1` [Example 39, 3-(((6-Chloro-2-(trifluoromethyl)quinolin-4-yl)amino)methyl)-3-(4-fluorophenyl)azetidine-1-carboxamide]: the pIC50 in test [1] and in test [2] was 7.00 to 10.00 throughout.
Consider `NC(=O)N1CC(CNc2cc(C(F)(F)F)nc3ccc(Cl)cc23)(c2ccccc2)C1` [Example 40, 3-(((6-Chloro-2-(trifluoromethyl)quinolin-4-yl)amino)methyl)-3-phenylazetidine-1-carboxamide], for which the pIC50 in test [1] and in test [2] was 7.00 to 10.00 throughout.
With `NC(=O)N1CC(CNc2cc(C(F)(F)F)nc3ccc(Cl)cc23)(c2ccnc(Cl)c2)C1` [Example 42, 3-(((6-Chloro-2-(trifluoromethyl)quinolin-4-yl)amino)methyl)-3-(2-chloropyridin-4-yl)azetidine-1-carboxamide], the pIC50 in test [1] and in test [2] was 7.00 to 10.00 each time.
With `CNC(=O)N1CC(CNc2cc(C(F)(F)F)nc3ccc(Cl)cc23)(c2ccccc2)C1` [Example 48, 3-(((6-Chloro-2-(trifluoromethyl)quinolin-4-yl)amino)methyl)-N-methyl-3-phenylazetidine-1-carboxamide], the negative-log IC50 (pIC50) in test [1] and in test [2] was 7.00 to 10.00 each time.
Turning to `Fc1ccc(C2(CNc3cc(C(F)(F)F)nc4ccc(Cl)cc34)COC2)cc1` [Example 50, 6-Chloro-N-((3-(4-fluorophenyl)oxetan-3-yl)methyl)-2-(trifluoromethyl)quinolin-4-amine], the pIC50 in test [1] and in test [2] was 7.00 to 10.00 throughout.
For `CNC(=O)N1CC(CNc2cc(C(F)(F)F)nc3ccc(Cl)cc23)(c2ccc(F)cn2)C1` [Example 51, 3-(((6-Chloro-2-(trifluoromethyl)quinolin-4-yl)amino)methyl)-3-(5-fluoropyridin-2-yl)-N-methylazetidine-1-carboxamide], the pIC50 in test [1] and in test [2] was 7.00 to 10.00 throughout.
With `CNC1CCC(CNc2cc(C(F)(F)F)nc3ccc(Cl)cc23)(c2ccccc2)C1` (stereo not shown) [Example 55, 6-Chloro-N-((3-(methylamino)-1-phenylcyclopentyl)methyl)-2 (trifluoromethyl)quinolin-4-amine], the pIC50 in test [1] and in test [2] was 7.00 to 10.00 in each case.
As to `Cc1ccc2nc(C(F)(F)F)cc(NCC3(c4ccc(F)cn4)CN(C(N)=O)C3)c2c1` [Example 56, 3-(5-Fluoropyridin-2-yl)-3-(((6-methyl-2-(trifluoromethyl)quinolin-4-yl)amino)methyl)azetidine-1-carboxamide], the values for the pIC50 in test [1] and in test [2] were 7.00 to 10.00 and 6.00 to 7.00, respectively.
For the compound `NC(=O)N1CC(CNc2cc(C(F)(F)F)nc3cc(Cl)ccc23)(c2ccc(F)cn2)C1` [Example 57, 3-(((7-Chloro-2-(trifluoromethyl)quinolin-4-yl)amino)methyl)-3-(5-fluoropyridin-2-yl)azetidine-1-carboxamide], in test [1], the pIC50 was 7.00 to 10.00.
On to `N#Cc1ccc2nc(C(F)(F)F)cc(NCC3(c4ccc(F)cn4)CN(C(N)=O)C3)c2c1` [Example 58, 3-(((6-Cyano-2-(trifluoromethyl)quinolin-4-yl)amino)methyl)-3-(5-fluoropyridin-2-yl)azetidine-1-carboxamide], for which the pIC50 in test [1] and in test [2] was 6.00 to 7.00 each time.
Consider `NC(=O)N1CC(CNc2cc(C(F)(F)F)nc3cccc(F)c23)(c2ccc(F)cn2)C1` [Example 60, 3-(((5-Fluoro-2-(trifluoromethyl)quinolin-4-yl)amino)methyl)-3-(5-fluoropyridin-2-yl)azetidine-1-carboxamide], for which the figures for the pIC50 in test [1] and in test [2] were 6.00 to 7.00 and less than 6.00, respectively.
For `Cc1ccc2c(NCC3(c4ccc(F)cn4)CN(C(N)=O)C3)cc(C(F)(F)F)nc2c1` [Example 61, 3-(5-Fluoropyridin-2-yl)-3-(((7-methyl-2-(trifluoromethyl)quinolin-4-yl)amino)methyl)azetidine-1-carboxamide] the same measures were less than 6.00 and less than 6.00.
With `N#Cc1cccc2c(NCC3(c4ccc(F)cn4)CN(C(N)=O)C3)cc(C(F)(F)F)nc12` [Example 64, 3-(((8-Cyano-2-(trifluoromethyl)quinolin-4-yl)amino)methyl)-3-(5-fluoropyridin-2-yl)azetidine-1-carboxamide], the pIC50 in test [1] is less than 6.00.
`Cc1cc(C)n(C2(CNc3cc(C(F)(F)F)nc4ccc(Cl)cc34)CN(C(N)=O)C2)n1` [Example 105, 3-(((6-Chloro-2-(trifluoromethyl)quinolin-4-yl)amino)methyl)-3-(3,5-dimethyl-1H-pyrazol-1-yl)azetidine-1-carboxamide]: the pIC50 in test [2] was 6.00 to 7.00.
